{"source": "patent US6638431B2", "about": "“Formulation and method for treating wetted surface elements in climate control systems” (Mainstream Engineering Corporation, priority 2001, dated 2003)", "origin": "cited, not measured here", "test_system": "Legionella pneumophilia"}
{"smiles": "[Ag]", "note": "[Ag, silver]", "values": [{"measurement": "concentration in water effective against Legionella pneumophilia", "result": "about 0.02 ppm"}]}
